Measured values reported in US9179694B2, “Method and composition for enhancing milk production and milk component concentrations” (PURINA ANIMAL NUTRITION LLC, priority 2003, dated 2015).
Marks after values point to notes of the source that are not given here.

Assay: Total solids content of produced milk in sorbitol feeding trials
Type: in vivo, Holstein cows
Settings: for Total Solids in Produced Milk: Pre-Partum Trial #1 (75/0/0 g/day in wk −3..−1/+1..+4/+5..+8)
Description: To determine the weight percent total solids, wet basis, in a sample, the actual weight of total solids is determined by analyzing the sample in accordance with Method #925.23 (33.2.09) of Official Methods of Analysis, Association of Official Analytical Chemists (AOAC) (16th Ed., 1995). The weight percent total solids, wet basis, is then calculated by dividing the actual weight of total solids by the actual weight of the sample. Each cow of each of the six different trials (Control Trial #1, Control Trial #2, Pre-Partum Trial #1, Pre-Partum Trial #2, Pre/Post Trial #1, and Pre/Post Trial #2) was milked three times daily and the weight of produced milk by each cow was recorded at each milking. The milk from each cow was sampled once per week (⅓ of the sample volume from each of the three milkings occurring on the weekly milk sampling day) and was analyzed for true protein, total fat, lactose, and total solids, as detailed in the property determination and characterization techniques presented above. Additionally, samples of blood were periodically obtained from each cow during the four trials (Control Trial 2, Pre-Partum Trial #2, Pre/Post Trial #1, and Pre/Post Trial #2) encompassed in Example Two and were analyzed for non-esterified fatty acid (NEFA) content as detailed in the property determination and characterization techniques presented above. No NEFA analysis was conducted on the cows employed in Control Trial #1 or Pre-Partum Trial #1 that are the subject of Example One. Example One includes Control Trial #1 and Pre-Partum Trial #1. Both primiparious cows and multiparious cows were included in Control Trial #1 and Pre-Partum Trial #1. Five primiparious cows and fifteen multiparious cows were included in Control Trial #1; likewise, five primiparious cows and fifteen multiparious cows were included in Pre-Partum Trial #1. All cows included in Control Trial #1 and Pre-Partum Trial #1 were Holsteins. Example Two includes Control Trial #2, Pre-Partum Trial #2, Pre/Post Trial #1, and Pre/Post Trial #2. Only multiparious, Holstein cows were included in Control Trial #2, […], Pre/Post Trial #1, and Pre/Post Trial #2. Eighteen multiparious cows were included in both Control Trial #2 and Pre-Partum Trial #2, while sixteen multiparious cows were included in Pre/Post Trial #1 and seventeen multiparious cows were included in Pre/Post Trial #2.

**Q.** Which results are given for `OC[C@@H](O)[C@@H](O)[C@H](O)[C@@H](O)CO` [sorbitol]?
**A.** Total Solids in Produced Milk (multiparious cows, weeks +1 through +8): 12.0^ab wt %; Total Solids in Produced Milk (primiparious cows, weeks +1 through +8): 13.0 wt %; increase in total solids concentration in the produced milk (Pre-Partum Trial #1 (75 g/day wk −3..−1 only) versus Control Trial #1, primiparious cows, weeks +1 through +8): 7.4%; Total Solids Content of Produced Milk (Pre-Partum Trial #2 (75/0/100 g/day in wk −3..−1/+1..+4/+5..+8), multiparious cows, week +1): 14.4^a weight %; Total Solids Content of Produced Milk (Pre-Partum Trial #2 (75/0/100 g/day in wk −3..−1/+1..+4/+5..+8), multiparious cows, week +2): 13.25 weight %; Total Solids Content of Produced Milk (Pre-Partum Trial #2 (75/0/100 g/day in wk −3..−1/+1..+4/+5..+8), multiparious cows, week +3): 12.54 weight %; Total Solids Content of Produced Milk (Pre-Partum Trial #2 (75/0/100 g/day in wk −3..−1/+1..+4/+5..+8), multiparious cows, week +4): 11.76^a weight %; Total Solids Content of Produced Milk (Pre-Partum Trial #2 (75/0/100 g/day in wk −3..−1/+1..+4/+5..+8), multiparious cows, week +5): 11.60^a weight %; Total Solids Content of Produced Milk (Pre-Partum Trial #2 (75/0/100 g/day in wk −3..−1/+1..+4/+5..+8), multiparious cows, week +6): 11.43^a weight %; Total Solids Content of Produced Milk (Pre-Partum Trial #2 (75/0/100 g/day in wk −3..−1/+1..+4/+5..+8), multiparious cows, week +7): 11.55 weight %; Total Solids Content of Produced Milk (Pre-Partum Trial #2 (75/0/100 g/day in wk −3..−1/+1..+4/+5..+8), multiparious cows, week +8): 11.45^ab weight %; Total Solids Content of Produced Milk (Pre-Partum Trial #2 (75/0/100 g/day in wk −3..−1/+1..+4/+5..+8), multiparious cows, weeks +1 through +4): 12.94^a weight %; Total Solids Content of Produced Milk (Pre-Partum Trial #2 (75/0/100 g/day in wk −3..−1/+1..+4/+5..+8), multiparious cows, weeks +1 through +8): 12.23^a weight %; Total Solids Content of Produced Milk (Pre-Partum Trial #2 (75/0/100 g/day in wk −3..−1/+1..+4/+5..+8), multiparious cows, weeks +5 through +8): 11.51^a weight %; Total Solids Content of Produced Milk (Pre/Post Trial #1 (150/125/100 g/day in wk −3..−1/+1..+4/+5..+8), multiparious cows, week +1): 15.3^ab weight %; Total Solids Content of Produced Milk (Pre/Post Trial #1 (150/125/100 g/day in wk −3..−1/+1..+4/+5..+8), multiparious cows, week +1, two-trial comparison with Control Trial #2 (Table 26)): 15.3 weight %; Total Solids Content of Produced Milk (Pre/Post Trial #1 (150/125/100 g/day in wk −3..−1/+1..+4/+5..+8), multiparious cows, week +2): 12.28 weight %; Total Solids Content of Produced Milk (Pre/Post Trial #1 (150/125/100 g/day in wk −3..−1/+1..+4/+5..+8), multiparious cows, week +2, two-trial comparison with Control Trial #2 (Table 26)): 13.28 weight %; Total Solids Content of Produced Milk (Pre/Post Trial #1 (150/125/100 g/day in wk −3..−1/+1..+4/+5..+8), multiparious cows, week +3): 12.84 weight %; Total Solids Content of Produced Milk (Pre/Post Trial #1 (150/125/100 g/day in wk −3..−1/+1..+4/+5..+8), multiparious cows, week +3, two-trial comparison with Control Trial #2 (Table 26)): 12.84 weight %; Total Solids Content of Produced Milk (Pre/Post Trial #1 (150/125/100 g/day in wk −3..−1/+1..+4/+5..+8), multiparious cows, week +4): 12.54^c weight %; Total Solids Content of Produced Milk (Pre/Post Trial #1 (150/125/100 g/day in wk −3..−1/+1..+4/+5..+8), multiparious cows, week +4, two-trial comparison with Control Trial #2 (Table 26)): 12.54 weight %; Total Solids Content of Produced Milk (Pre/Post Trial #1 (150/125/100 g/day in wk −3..−1/+1..+4/+5..+8), multiparious cows, week +5): 12.17^ab weight %; Total Solids Content of Produced Milk (Pre/Post Trial #1 (150/125/100 g/day in wk −3..−1/+1..+4/+5..+8), multiparious cows, week +5, two-trial comparison with Control Trial #2 (Table 26)): 12.17 weight %; Total Solids Content of Produced Milk (Pre/Post Trial #1 (150/125/100 g/day in wk −3..−1/+1..+4/+5..+8), multiparious cows, week +6): 12.08^b weight %; Total Solids Content of Produced Milk (Pre/Post Trial #1 (150/125/100 g/day in wk −3..−1/+1..+4/+5..+8), multiparious cows, week +6, two-trial comparison with Control Trial #2 (Table 26)): 12.08 weight %; Total Solids Content of Produced Milk (Pre/Post Trial #1 (150/125/100 g/day in wk −3..−1/+1..+4/+5..+8), multiparious cows, week +7): 11.71 weight %; Total Solids Content of Produced Milk (Pre/Post Trial #1 (150/125/100 g/day in wk −3..−1/+1..+4/+5..+8), multiparious cows, week +7, two-trial comparison with Control Trial #2 (Table 26)): 11.71 weight %; Total Solids Content of Produced Milk (Pre/Post Trial #1 (150/125/100 g/day in wk −3..−1/+1..+4/+5..+8), multiparious cows, week +8): 12.06^b weight %; Total Solids Content of Produced Milk (Pre/Post Trial #1 (150/125/100 g/day in wk −3..−1/+1..+4/+5..+8), multiparious cows, week +8, two-trial comparison with Control Trial #2 (Table 26)): 12.06 weight %; Total Solids Content of Produced Milk (Pre/Post Trial #1 (150/125/100 g/day in wk −3..−1/+1..+4/+5..+8), multiparious cows, weeks +1 through +4): 13.49^ab weight %; Total Solids Content of Produced Milk (Pre/Post Trial #1 (150/125/100 g/day in wk −3..−1/+1..+4/+5..+8), multiparious cows, weeks +1 through +4, two-trial comparison with Control Trial #2 (Table 26)): 13.49 weight %; Total Solids Content of Produced Milk (Pre/Post Trial #1 (150/125/100 g/day in wk −3..−1/+1..+4/+5..+8), multiparious cows, weeks +1 through +8): 12.76^b weight %; Total Solids Content of Produced Milk (Pre/Post Trial #1 (150/125/100 g/day in wk −3..−1/+1..+4/+5..+8), multiparious cows, weeks +1 through +8, two-trial comparison with Control Trial #2 (Table 26)): 12.76 weight %; Total Solids Content of Produced Milk (Pre/Post Trial #1 (150/125/100 g/day in wk −3..−1/+1..+4/+5..+8), multiparious cows, weeks +5 through +8): 12.02^b weight %; Total Solids Content of Produced Milk (Pre/Post Trial #1 (150/125/100 g/day in wk −3..−1/+1..+4/+5..+8), multiparious cows, weeks +5 through +8, two-trial comparison with Control Trial #2 (Table 26)): 12.02 weight %; increase in total solids concentration in milk (Pre/Post Trial #1 (150/125/100 g/day) versus Control Trial #2, multiparious cows, weeks +1 through +4 (Table 26)): more than 3.7%; greater total solids concentration in milk (Pre/Post Trial #1 (150/125/100 g/day) versus Control Trial #2, multiparious cows, weeks +1 through +8): 4.6%; increase in total solids concentration in milk (Pre/Post Trial #1 (150/125/100 g/day) versus Control Trial #2, multiparious cows, weeks +1 through +8 (Table 26)): ~4.6%; greater total solids concentration in milk (Pre/Post Trial #1 (150/125/100 g/day) versus Control Trial #2, multiparious cows, weeks +5 through +8): 5.2%; increase in total solids concentration in milk (Pre/Post Trial #1 (150/125/100 g/day) versus Control Trial #2, multiparious cows, weeks +5 through +8 (Table 26)): more than 5.2%; greater total solids concentration in milk (Pre/Post Trial #1 (150/125/100 g/day) versus Pre-Partum Trial #2 (75/0/100 g/day), multiparious cows, weeks +1 through +8): 4.3%; greater total solids concentration in milk (Pre/Post Trial #1 (150/125/100 g/day) versus Pre-Partum Trial #2 (75/0/100 g/day), multiparious cows, weeks +5 through +8): 4.4%; Total Solids Content of Produced Milk (Pre/Post Trial #2 (75/75/100 g/day in wk −3..−1/+1..+4/+5..+8), multiparious cows, week +1): 15.6^b weight %; Total Solids Content of Produced Milk (Pre/Post Trial #2 (75/75/100 g/day in wk −3..−1/+1..+4/+5..+8), multiparious cows, week +2): 13.61 weight %; Total Solids Content of Produced Milk (Pre/Post Trial #2 (75/75/100 g/day in wk −3..−1/+1..+4/+5..+8), multiparious cows, week +3): 12.92 weight %; Total Solids Content of Produced Milk (Pre/Post Trial #2 (75/75/100 g/day in wk −3..−1/+1..+4/+5..+8), multiparious cows, week +4): 12.43^bc weight %; Total Solids Content of Produced Milk (Pre/Post Trial #2 (75/75/100 g/day in wk −3..−1/+1..+4/+5..+8), multiparious cows, week +5): 12.38^b weight %; Total Solids Content of Produced Milk (Pre/Post Trial #2 (75/75/100 g/day in wk −3..−1/+1..+4/+5..+8), multiparious cows, week +6): 11.89^ab weight %; Total Solids Content of Produced Milk (Pre/Post Trial #2 (75/75/100 g/day in wk −3..−1/+1..+4/+5..+8), multiparious cows, week +7): 11.64 weight %; Total Solids Content of Produced Milk (Pre/Post Trial #2 (75/75/100 g/day in wk −3..−1/+1..+4/+5..+8), multiparious cows, week +8): 11.57^ab weight %; Total Solids Content of Produced Milk (Pre/Post Trial #2 (75/75/100 g/day in wk −3..−1/+1..+4/+5..+8), multiparious cows, weeks +1 through +4): 13.63^b weight %; Total Solids Content of Produced Milk (Pre/Post Trial #2 (75/75/100 g/day in wk −3..−1/+1..+4/+5..+8), multiparious cows, weeks +1 through +8): 12.73^b weight %; Total Solids Content of Produced Milk (Pre/Post Trial #2 (75/75/100 g/day in wk −3..−1/+1..+4/+5..+8), multiparious cows, weeks +5 through +8): 11.87^ab weight %; greater total solids concentration in milk (Pre/Post Trial #2 (75/75/100 g/day) versus Control Trial #2, multiparious cows, weeks +1 through +4): 4.8%; greater total solids concentration in milk (Pre/Post Trial #2 (75/75/100 g/day) versus Control Trial #2, multiparious cows, weeks +1 through +8): 4.3%; greater total solids concentration in milk (Pre/Post Trial #2 (75/75/100 g/day) versus Pre-Partum Trial #2 (75/0/100 g/day), multiparious cows, weeks +1 through +4): 5.3%; greater total solids concentration in milk (Pre/Post Trial #2 (75/75/100 g/day) versus Pre-Partum Trial #2 (75/0/100 g/day), multiparious cows, weeks +1 through +8): 4.1%; increase in total solids concentration in milk (average of means of Pre-Partum Trial #2, Pre/Post Trial #1 and Pre/Post Trial #2 versus Control Trial #2, multiparious cows, weeks +1 through +4): 2.7%; increase in total solids concentration in milk (average of means of Pre-Partum Trial #2, Pre/Post Trial #1 and Pre/Post Trial #2 versus Control Trial #2, multiparious cows, weeks +1 through +8): 1.1%; increase in total solids concentration in milk (average of means of Pre-Partum Trial #2, Pre/Post Trial #1 and Pre/Post Trial #2 versus Control Trial #2, multiparious cows, weeks +5 through +8): 3.3%
